Reference: ChEMBL document CHEMBL5537171, “Design, Synthesis, and Biological Evaluation of Potent and Selective PROTAC Degraders of Oncogenic KRASG12D” (J Med Chem, 2024)
Calls of active or inactive are those of the source. The calls are words filed in the database; no cut-off is given here.

Key:
[1] = Toxicity in BALB/c nude mouse xenografted with human ASPC1 cells assessed as body weight loss at 50 mg/kg, sc for 22 days; type: organism-based; conditions: in vivo, 528 h, time 22 day
[2] = target: T1, von Hippel-Lindau disease tumor suppressor/GTPase KRas (Homo sapiens, UniProt P01116+P40337, G12D); test: PROTAC activity at VHL/KRAS G12D mutant in human SNU1 cells assessed as inhibition of pERK level incubated for 24 hrs by Western blot analysis; type: cell-based
[3] = tested on: von Hippel-Lindau disease tumor suppressor/GTPase KRas (Homo sapiens), P01116+P40337 [G12D]; test: PROTAC activity at VHL/KRAS G12D mutant in human ASPC1 cells assessed as induction protein degradation at 1 uM measured for 6 hrs by Western blot analysis relative to control; type: cell-based
ASPC1 [4] = test: Antiproliferative activity against human ASPC1 cells harboring KRAS G12D mutant assessed as inhibition of cell viability incubated for 5 days by Cell Titer Glo assay; type: functional, cell-based; conditions: ASPC1, 120 h
[5] = target: T1, von Hippel-Lindau disease tumor suppressor/GTPase KRas; test: PROTAC activity at VHL/KRAS G12D mutant in human PANC-1 cells assessed as induction of protein degradation incubated for 24 hrs by Western blot analysis; type: cell-based
ASPC1 [6] = test: Antitumor activity in human ASPC1 cells xenografted in BALB/c nude mouse assessed as tumor growth inhibition at 50 mg/kg, sc administered once per three days for 22 days relative to control; type: functional; conditions: ASPC1, 528 h, time 22 day, read-out: TGI
[7] = target: von Hippel-Lindau disease tumor suppressor/GTPase KRas (Homo sapiens) (UniProt P01116+P40337); test: PROTAC activity at VHL/KRAS in human NCI-H1975 cells assessed as induction of protein degradation at 0.1 uM incubated for 24 hrs by Western blot analysis; type: cell-based
[8] = tested on: von Hippel-Lindau disease tumor suppressor/GTPase KRas (Homo sapiens), P01116+P40337 [G12D]; test: PROTAC activity at VHL/KRAS G12D mutant in human ASPC1 cells assessed as induction of protein degradation at 1 uM incubated for 6 hrs followed by compound washout measured after 72 hrs by Western blot analysis; type: cell-based
ASPC1 [9] = test: Antiproliferative activity against human ASPC1 cells assessed as inhibition of cell viability incubated for 120 hrs of continuous treatment by Cell Titer Glo assay; type: functional, cell-based; conditions: ASPC1, 120 h
[10] = tested on: von Hippel-Lindau disease tumor suppressor/GTPase KRas (Homo sapiens), P01116+P40337 [G12S]; test: PROTAC activity at VHL/KRAS G12S mutant in human A549 cells assessed as induction of protein degradation at 0.1 uM incubated for 24 hrs by Western blot analysis; type: cell-based
[11] = AUClast in BALB/c mouse at 10 mg/kg, sc by LC-MS/MS analysis; type: ADME, organism-based; conditions: in vivo
NCI-H358 = test: Antiproliferative activity against human NCI-H358 cells harboring KRAS G12C mutant assessed as inhibition of cell viability incubated for 5 days by Cell Titer Glo assay; type: functional, cell-based; conditions: NCI-H358, 120 h
[12] = tested on: von Hippel-Lindau disease tumor suppressor/GTPase KRas (Homo sapiens), P01116+P40337 [G12V]; test: PROTAC activity at VHL/KRAS G12V mutant in human SK-CO-1 cells assessed as induction of protein degradation at 0.1 uM incubated for 24 hrs by Western blot analysis; type: cell-based
SNU1 = test: Antiproliferative activity against human SNU1 cells harboring KRAS G12D mutant assessed as inhibition of cell viability incubated for 5 days by Cell Titer Glo assay; type: functional, cell-based; conditions: SNU1, 120 h
ASPC1 [13] = test: Downregulation of KRT14 level in human ASPC1 cells at 0.1 uM incubated for 6 hrs by DIA-based proteomic analysis; type: functional, cell-based
Homo sapiens = species on record: Homo sapiens; test: Binding affinity to His-tagged VHL/Elongin C/Elongin B/GST-tagged KRAS G12D mutant (unknown origin) incubated for 1 hr by HTRF assay
[14] = target: T1, von Hippel-Lindau disease tumor suppressor/GTPase KRas; test: PROTAC activity at VHL/KRAS G12D mutant in human SNU1 cells assessed as induction of protein degradation incubated for 24 hrs by Western blot analysis; type: cell-based
[15] = tested on: von Hippel-Lindau disease tumor suppressor/GTPase KRas (Homo sapiens), P01116+P40337 [G12D]; test: In vivo PROTAC activity at VHL/KRAS G12D mutant in human ASPC1 cells xenografted in BALB/c nude mouse assessed as decrease in DUSP4 mRNA level at 50 mg/kg, sc measured for 24 hrs by RT-qPCR analysis; type: functional, organism-based
[16] = Toxicity in BALB/c nude mouse xenografted with human ASPC1 cells assessed as notable toxic symptoms at 50 mg/kg, sc for 22 days; type: organism-based; conditions: in vivo, 528 h, time 22 day
[17] = tested on: von Hippel-Lindau disease tumor suppressor/GTPase KRas (Homo sapiens), P01116+P40337 [G12D]; test: (§1) PROTAC activity at VHL/KRAS G12D mutant in human ASPC1 cells assessed as induction of protein degradation at 1 uM pretreated with BafA1 followed by compound treatment for 6 hrs by Western blot analysis; type: cell-based
ASPC1 [18] = test: Downregulation of KRT9 level in human ASPC1 cells at 0.1 uM incubated for 6 hrs by DIA-based proteomic analysis; type: functional, cell-based
[19] = tested on: von Hippel-Lindau disease tumor suppressor/GTPase KRas (Homo sapiens), P01116+P40337 [G12D]; test: as §1, with “(2S,4R)-1-((S)-2-acetamido-3,3-dimethylbutanoyl)-4-hydroxy-N-((S)-1-(4-(4-methylthiazol-5-yl)phenyl)ethyl)pyrrolidine-2-carboxamide” for “BafA1”; type: cell-based
[20] = Selectivity index, ratio of IC50 for human ASPC1 cells assessed as inhibition of cell viability incubated for 6 hrs followed by compound washout measured after 114 hrs by Cell Titer Glo assay to IC50 for human ASPC1 cells assessed as inhibition of cell viability incubated for 120 hrs of continuous treatment by Cell Titer Glo assay; type: functional
[21] = tested on: von Hippel-Lindau disease tumor suppressor/GTPase KRas (Homo sapiens), P01116+P40337 [G12D]; test: PROTAC activity at VHL/KRAS G12D mutant in human ASPC1 cells assessed as induction protein degradation at 1 uM measured for 2 to 24 hrs by Western blot analysis; type: cell-based; conditions: time 2-24 hrs
[22] = Cooperativity factor alpha, ratio of IC50 for His-tagged VHL/Elongin C/Elongin B (unknown origin) to IC50 for His-tagged VHL/Elongin C/Elongin B/KRAS (unknown origin)
[23] = tested on: von Hippel-Lindau disease tumor suppressor/GTPase KRas (Homo sapiens), P01116+P40337 [G12D]; test: PROTAC activity at VHL/KRAS G12D mutant in human ASPC1 cells assessed as decrease in pERK level at 1 uM incubated for 6 hrs followed by compound washout measured upto 72 hrs by Western blot analysis; type: cell-based
[24] = MRT (infinity) in BALB/c mouse at 10 mg/kg, sc by LC-MS/MS analysis; type: ADME, organism-based; conditions: in vivo
[25] = target: T1, von Hippel-Lindau disease tumor suppressor/GTPase KRas; test: PROTAC activity at VHL/KRAS G12D mutant in human HPAF-II cells assessed as induction of protein degradation incubated for 24 hrs by Western blot analysis; type: cell-based
[26] = target: T1, von Hippel-Lindau disease tumor suppressor/GTPase KRas; test: PROTAC activity at VHL/KRAS G12D mutant in human ASPC1 cells assessed as induction of protein degradation incubated for 24 hrs by Western blot analysis; type: cell-based; conditions: read-out: DC50
[27] = AUC (infinity) in BALB/c mouse at 10 mg/kg, sc by LC-MS/MS analysis; type: ADME, organism-based; conditions: in vivo
[28] = tested on: von Hippel-Lindau disease tumor suppressor/GTPase KRas (Homo sapiens), P01116+P40337 [G12D]; test: PROTAC activity at VHL/KRAS G12D mutant in human ASPC1 cells assessed as induction of protein degradation at 1 uM incubated for 6 hrs by Western blot analysis; type: cell-based

Chain of von Hippel-Lindau disease tumor suppressor/GTPase KRas (Homo sapiens), P01116+P40337 [G12D] (P01116 whole entry G12D): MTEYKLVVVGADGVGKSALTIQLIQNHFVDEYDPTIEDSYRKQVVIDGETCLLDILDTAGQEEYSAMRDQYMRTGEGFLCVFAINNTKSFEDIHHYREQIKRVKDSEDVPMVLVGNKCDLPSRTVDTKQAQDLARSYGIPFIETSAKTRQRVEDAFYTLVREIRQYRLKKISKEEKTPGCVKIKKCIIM
Chain of von Hippel-Lindau disease tumor suppressor/GTPase KRas (Homo sapiens), P01116+P40337 [G12D] (P40337 whole entry partner): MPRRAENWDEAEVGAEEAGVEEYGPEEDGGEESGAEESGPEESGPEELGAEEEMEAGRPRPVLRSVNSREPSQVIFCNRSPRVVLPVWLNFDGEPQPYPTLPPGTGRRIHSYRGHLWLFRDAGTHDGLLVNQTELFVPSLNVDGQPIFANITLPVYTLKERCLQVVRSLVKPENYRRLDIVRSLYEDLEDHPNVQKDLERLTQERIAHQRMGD
T1 sequence (P01116 whole entry G12D, stated change not applied): as the sequence (P01116 whole entry G12D) above
T1 sequence (P40337 whole entry, stated change not applied): as the sequence (P40337 whole entry partner) above
Chain of von Hippel-Lindau disease tumor suppressor/GTPase KRas (Homo sapiens) (P01116 whole entry, looked up): as the sequence (P01116 whole entry G12D) above, with D12G counted along it
Chain of von Hippel-Lindau disease tumor suppressor/GTPase KRas (Homo sapiens) (P40337 whole entry, looked up): as the sequence (P40337 whole entry partner) above

## CCc1c(F)ccc2cc(O)cc(-c3ncc4c(N5C[C@H]6CC[C@@H](C5)N6)nc(OC[C@@H]5CCCN5CCCCOCC(=O)N[C@H](C(=O)N5C[C@H](O)C[C@H]5C(=O)N[C@@H](C)c5ccc(-c6scnc6C)cc5)C(C)(C)C)nc4c3F)c12
[1]
  Activity: Non-Toxic
[2]
  IC50: 0.0177 µM
[3]
  Activity: 95%
ASPC1 [4]
  IC50: 0.06 µM
[5]
  DC50: 0.0878 µM
ASPC1 [6]
  inhibition in vivo at 50 mg/kg: 50.9%
[7]
  Activity: inactive
[8]
  Activity: Active
ASPC1 [9]
  IC50: 0.0611 µM
[10]
  Activity: inactive
[11]
  AUC(0-t): 4470 ng·h/mL
NCI-H358
  IC50: > 9 µM
[12]
  Activity: inactive
SNU1
  IC50: 0.0435 µM
ASPC1 [13]
  Activity: Active
Homo sapiens
  Activity: Active
[14]
  DC50: 0.0198 µM
[15]
  Activity: Active
[16]
  Activity: Non-Toxic
[17]
  Activity: Active
ASPC1 [18]
  Activity: Active
[19]
  Activity: inactive
[20]
  Ratio IC50: 3.78
[21]
  Activity: Active
[22]
  Ratio IC50: 15.9
[23]
  Activity: Active
[24]
  MRT inf: 9.33 h
[25]
  DC50: 0.053 µM
[26]
  DC50: 0.0381 µM
[27]
  AUC(0-inf): 5060 ng·h/mL
[28]
  Activity: Active
